The source of these data is US20240294543A1, “CYCLOHEPTA-THIENO-DIAZEPINE DERIVATIVES AS GABA A GAMMA1 PAM” (Hoffmann-La Roche Inc., priority 2021, published 2024).

pKi: −log10 of the molar value. Where two headings read alike, the source gives them in different places.

In assay [1] the target is human GABAA α2β2γ1 receptor (Homo sapiens (Human), UniProt P47869+Q8N1C3). As to the kind of experiment: Radioligand binding assay, competition for [3H]RO7239181, γ1-containing GABAA subtypes. As to conditions: Ki h-GABAA α2β2γ1, membranes of HEK293F cells, [3H]RO7239181 20-30 nM.
Assay [2] has as its target human GABAA α1β3γ2 receptor (Homo sapiens (Human), UniProt P14867+P18507). The assay can be described thus: Radioligand binding assay, competition for [3H]Flumazenil, γ2-containing GABAA subtypes. As to conditions: for γ2/γ1 Selectivity Ratio: Ki α1β3γ2 (nM)/Ki α2β2γ1 (nM); for LogSel: Log[Ki α1β3γ2 (nM)/Ki α2β2γ1 (nM)]. A digest of the protocol: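 Competition against [3H]Flumazenil binding in HEK293F cells transiently expressing human α1β3γ2 receptors, pellets resuspended in mannitol buffer pH 7,2-7,4. Incubated to equilibrium 1 hour at 4° C, filtered and washed with ice-cold 50 mM Tris pH 7.5, bound radioactivity by liquid scintillation counting. Ki values are means of two determinations.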

[3] abbreviates: HEK293F cells, [3H]Flumazenil 1 nM, Table 1, read-out: Ki h-GABAA α1β3γ2.

With `Cc1nnc2n1-c1sc3c(c1C(c1c(F)cccc1F)=N[C@H]2C)CC[C@@H](F)CO3` [Example 56, (7S,14R)-9-(2,6-difluorophenyl)-14-fluoro-3,7-dimethyl-16-oxa-18-thia-2,4,5,8-tetrazatetracyclo[8.8.0.02,6.011,17]octadeca-1(10),3,5,8,11(17)-pentaene], the pKi (usually the negative decadic logarithm of the Ki, by convention in mol/L) is 7.40 in assay [1] (Table 1), 7.40 in assay [1] (Table 2) and 4.94 in assay [2]. In addition, the “γ2/γ1 Selectivity Ratio” value in assay [2] (Table 1) is recorded as 290.8. The molecule further had a LogSel in assay [2] (Table 1) of 2.46.
As to `C[C@@H]1N=C(c2c(F)cccc2F)c2c(sc3c2COCCC3)-n2cc(C(=O)NCC(C)(C)O)nc21` [Example 67, (7S)-9-(2,6-difluorophenyl)-N-(2-hydroxy-2-methyl-propyl)-7-methyl-13-oxa-18-thia-2,5,8-triazatetracyclo[8.8.0.02,6.011,17]octadeca-1(10),3,5,8,11(17)-pentaene-4-carboxamide], the pKi was 7.67 in assay [1] (Table 1), 7.67 in assay [1] (Table 2) and 5.74 in assay [2] (setting [3]). For the same molecule, in assay [2] (Table 1), the “γ2/γ1 Selectivity Ratio” value is reported as 84.5. Moreover, the LogSel in assay [2] (Table 1) was 1.93.
On to `C[C@@H]1N=C(c2c(F)cccc2F)c2c(sc3c2COCCC3)-n2nc(C(=O)N[C@H]3C[C@H](O)C3)nc21` [Example 63, (7S)-9-(2,6-difluorophenyl)-N-(trans-3-hydroxycyclobutyl)-7-methyl-13-oxa-18-thia-2,3,5,8-tetrazatetracyclo[8.8.0.02,6.011,17]octadeca-1(10),3,5,8,11(17)-pentaene-4-carboxamide], for which the pKi in assay [1] (Table 1) is 7.34; in assay [1] (Table 2), 7.34; in assay [2] (setting [3]) it was 5.35. Further, the “γ2/γ1 Selectivity Ratio” value in assay [2] (Table 1) was found to be 96.5. The LogSel in assay [2] (Table 1) is given as 1.98.
Take `Cc1nc2n(n1)-c1sc3c(c1C(c1c(F)cccc1F)=N[C@H]2C)COCCO3` [Example 28, (7S)-9-(2,6-difluorophenyl)-4,7-dimethyl-13,16-dioxa-18-thia-2,3,5,8-tetrazatetracyclo[8.8.0.02,6.011,17]octadeca-1(10),3,5,8,11(17)-pentaene]: the figures for the pKi in assay [1] (Table 1), in assay [1] (Table 2) and in assay [2] were 8.26, 8.26 and 5.71, respectively. The “γ2/γ1 Selectivity Ratio” value in assay [2] (Table 1) stood at 353.3. Also, the LogSel in assay [2] (Table 1) was found to be 2.55.
Consider `C[C@@H]1N=C(c2c(F)cccc2F)c2c(sc3c2CCCCC3)-n2c(-c3cccnn3)nnc21` [Example 4, (7S)-9-(2,6-difluorophenyl)-7-methyl-3-pyridazin-3-yl-18-thia-2,4,5,8-tetrazatetracyclo[8.8.0.02,6.011,17]octadeca-1(10),3,5,8,11(17)-pentaene], for which the pKi is 7.32 in assay [1] (Table 1), 7.32 in assay [1] (Table 2) and 5.34 in assay [2]. The “γ2/γ1 Selectivity Ratio” value in assay [2] (Table 1) stood at 94.6. Besides, in assay [2] (Table 1), the LogSel is recorded as 1.98.
`[2H]C1([2H])OCc2c(sc3c2C(c2c(F)cccc2F)=N[C@@H](C)c2nc(C(=O)N4CCC4)nn2-3)OC1([2H])[2H]` [Example 23, azetidin-1-yl-[(7S)-14,14,15,15-tetradeuterio-9-(2,6-difluorophenyl)-7-methyl-13,16-dioxa-18-thia-2,3,5,8-tetrazatetracyclo[8.8.0.02,6.011,17]octadeca-1(10),3,5,8,11(17)-pentaen-4-yl]methanone]: the pKi in assay [1] (Table 1) was 8.20; in assay [1] (Table 2), 8.20; in assay [2] (setting [3]), 5.07. The “γ2/γ1 Selectivity Ratio” value in assay [2] (Table 1) was 1329.5. For the same molecule, the LogSel in assay [2] (Table 1) worked out at 3.12.
Regarding `Cc1nc2n(n1)-c1sc3c(c1C(c1c(F)cccc1F)=N[C@H]2C)COC[C@H](C)O3` [Example 39, (7S,15S)-9-(2,6-difluorophenyl)-4,7,15-trimethyl-13,16-dioxa-18-thia-2,3,5,8-tetrazatetracyclo[8.8.0.02,6.011,17]octadeca-1(10),3,5,8,11(17)-pentaene], the pKi in assay [1] (Table 1) is 7.24; in assay [1] (Table 2), 7.24; in assay [2], 5.04. Also, the “γ2/γ1 Selectivity Ratio” value in assay [2] (Table 1) is on record as 157.6. This molecule also registered a LogSel in assay [2] (Table 1) of 2.20.
Regarding `C[C@@H]1N=C(c2c(F)cccc2F)c2c(sc3c2COCCO3)-n2nc(C(=O)N3CCC3)nc21` [Example 22, azetidin-1-yl-[(7S)-9-(2,6-difluorophenyl)-7-methyl-13,16-dioxa-18-thia-2,3,5,8-tetrazatetracyclo[8.8.0.02,6.011,17]octadeca-1(10),3,5,8,11(17)-pentaen-4-yl]methanone], the figures for the pKi in assay [1] (Table 1), in assay [1] (Table 2) and in assay [2] (setting [3]) were 8.00, 8.00 and 5.52, respectively. For the same molecule, the “γ2/γ1 Selectivity Ratio” value in assay [2] (Table 1) turned out to be 304.3. In assay [2] (Table 1), the LogSel amounted to 2.48.
As to `Cc1nnc2n1-c1sc3c(c1C(c1c(F)cccc1F)=N[C@H]2C)CCCCC3O` (mixture of isomers) [Example 9, (7S,16RS)-9-(2,6-difluorophenyl)-3,7-dimethyl-18-thia-2,4,5,8-tetrazatetracyclo[8.8.0.02,6.011,17]octadeca-1(10),3,5,8,11(17)-pentaen-16-ol], the figures for the pKi in assay [1] (Table 1), in assay [1] (Table 2) and in assay [2] were 7.84, 7.84 and 5.95, respectively. In assay [2] (Table 1), the “γ2/γ1 Selectivity Ratio” value came out at 79.4. Moreover, in assay [2] (Table 1), the LogSel was found to be 1.90.
Take `CCNC(=O)c1nc2n(n1)-c1sc3c(c1C(c1c(F)cccc1F)=N[C@H]2C)COCCO3` [Example 37, (7S)-9-(2,6-difluorophenyl)-N-ethyl-7-methyl-13,16-dioxa-18-thia-2,3,5,8-tetrazatetracyclo[8.8.0.02,6.011,17]octadeca-1(10),3,5,8,11(17)-pentaene-4-carboxamide]: the pKi is 7.47 in assay [1] (Table 1), 7.47 in assay [1] (Table 2) and 5.39 in assay [2] (setting [3]). For the same molecule, the “γ2/γ1 Selectivity Ratio” value in assay [2] (Table 1) is given as 121.1. Further, the LogSel in assay [2] (Table 1) is reported as 2.08.
As to `Cc1nc2n(n1)-c1sc3c(c1C(c1c(F)cccc1F)=N[C@H]2C)CCCCC3` [Example 20, (7S)-9-(2,6-difluorophenyl)-4,7-dimethyl-18-thia-2,3,5,8-tetrazatetracyclo[8.8.0.02,6.011,17]octadeca-1(10),3,5,8,11(17)-pentaene], the pKi was 7.90 in assay [1] (Table 1), 7.90 in assay [1] (Table 2) and 5.89 in assay [2]. Moreover, the “γ2/γ1 Selectivity Ratio” value in assay [2] (Table 1) is 101.9. In assay [2] (Table 1), this molecule registered a LogSel of 2.01.
For the molecule `C[C@@H]1N=C(c2c(F)cccc2F)c2c(sc3c2COCCC3)-n2nc(C(=O)NCC3(O)CC3)nc21` [Example 62, (7S)-9-(2,6-difluorophenyl)-N-[(1-hydroxycyclopropyl)methyl]-7-methyl-13-oxa-18-thia-2,3,5,8-tetrazatetracyclo[8.8.0.02,6.011,17]octadeca-1(10),3,5,8,11(17)-pentaene-4-carboxamide], the results for the pKi in assay [1] (Table 1), in assay [1] (Table 2) and in assay [2] (setting [3]) were 7.61, 7.61 and 5.31, respectively. For the same molecule, the “γ2/γ1 Selectivity Ratio” value in assay [2] (Table 1) turned out to be 200.3. Also, the LogSel in assay [2] (Table 1) came out at 2.30.
For the molecule `C[C@@H]1N=C(c2c(F)cccc2F)c2c(sc3c2COCCC3)-n2cc(C(=O)NCC3(O)CC3)nc21` [Example 68, (7S)-9-(2,6-difluorophenyl)-N-[(1-hydroxycyclopropyl)methyl]-7-methyl-13-oxa-18-thia-2,5,8-triazatetracyclo[8.8.0.02,6.011,17]octadeca-1(10),3,5,8,11(17)-pentaene-4-carboxamide], the pKi in assay [1] (Table 1) was 7.97; in assay [1] (Table 2), 7.97; in assay [2] (setting [3]), 5.70. The “γ2/γ1 Selectivity Ratio” value in assay [2] (Table 1) worked out at 187.5. The LogSel in assay [2] (Table 1) turned out to be 2.27.
`C[C@@H]1N=C(c2c(F)cccc2F)c2c(sc3c2COCCO3)-n2nc(C(=O)N3CC(OC(C)(C)C)C3)nc21` [Example 29, (3-tert-butoxyazetidin-1-yl)-[(7S)-9-(2,6-difluorophenyl)-7-methyl-13,16-dioxa-18-thia-2,3,5,8-tetrazatetracyclo[8.8.0.02,6.011,17]octadeca-1(10),3,5,8,11(17)-pentaen-4-yl]methanone]: the pKi in assay [1] (Table 1) was 8.11; in assay [1] (Table 2) it was 8.11; in assay [2] (setting [3]), 5.55. For the same molecule, in assay [2] (Table 1), the “γ2/γ1 Selectivity Ratio” value was 366.9. The LogSel in assay [2] (Table 1) is 2.56.
`C[C@@H]1N=C(c2c(F)cccc2F)c2c(sc3c2COCCO3)-n2nc(C(=O)NCCF)nc21` [Example 25, (7S)-9-(2,6-difluorophenyl)-N-(2-fluoroethyl)-7-methyl-13,16-dioxa-18-thia-2,3,5,8-tetrazatetracyclo[8.8.0.02,6.011,17]octadeca-1(10),3,5,8,11(17)-pentaene-4-carboxamide]: the results for the negative-log Ki (pKi) in assay [1] (Table 1), in assay [1] (Table 2) and in assay [2] (setting [3]) were 7.54, 7.54 and 5.66, respectively. Besides, the “γ2/γ1 Selectivity Ratio” value in assay [2] (Table 1) worked out at 75.4. This molecule had a LogSel in assay [2] (Table 1) of 1.88.
Consider `C[C@@H]1N=C(c2c(F)cccc2F)c2c(sc3c2CCCCC3)-n2ccc(=O)nc21` [Example 7, (8S)-10-(2,6-difluorophenyl)-8-methyl-19-thia-2,6,9-triazatetracyclo[9.8.0.02,7.012,18]nonadeca-1(11),3,6,9,12(18)-pentaen-5-one], for which the pKi is 7.43 in assay [1] (Table 1), 7.43 in assay [1] (Table 2) and 5.11 in assay [2]. For the same molecule, the “γ2/γ1 Selectivity Ratio” value in assay [2] (Table 1) is recorded as 205.1. Also, in assay [2] (Table 1), the LogSel is 2.31.
